#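 Five compound concentrations were applied to cells in 96-well plates for 48 hours; endpoints were derived by simple linear interpolation of the resulting dose-response curve. The concentration for 50% growth inhibition is given as GI50. The concentration for full growth arrest is given as TGI.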
# Experiments:
# Assay in all cases: inhibition of tumour cell growth, NCI panel, 48 h
# [1] = system: NCI-H23 lung
# [2] = system: CCRF-CEM leukemia
# [3] = system: COLO 205 colon
# [4] = system: NCI-H226 lung
# [5] = system: HCT-116 colon
# [6] = system: HCC-2998 colon
# [7] = system: RPMI-8226 leukemia
# [8] = system: CAKI-1 renal
# [9] = system: EKVX NSCLC
# [10] = system: HS 578T breast
Compound,TGI [1] [µM],TGI [2] [µM],TGI [3] [µM],TGI [4] [µM],TGI [5] [µM],TGI [6] [µM],TGI [7] [µM],TGI [8] [µM],TGI [9] [µM],GI50 [1] [µM],GI50 [2] [µM],GI50 [10] [µM],TGI [10] [µM],GI50 [3] [µM],GI50 [4] [µM],GI50 [5] [µM],GI50 [6] [µM],GI50 [7] [µM],GI50 [8] [µM],GI50 [9] [µM]
CCC(/C(=N/NC(=O)C[N+](C)(C)C)c1ccccc1)C1OC(=O)c2ccccc21 (stereo not given),> 100,> 100,> 100,> 100,> 100,> 100,> 100,> 100,,,,,,,,,,,,
O=S1(=O)CC#CC[C@@H](CO)[C@@H](CO)CC#CC1,> 100,98.1,,,> 100,> 100,,,> 100,,,,,,,,,,,
COc1ccc(C2CC(=O)Nc3c2c(C)nn3-c2nc3ccccc3[nH]2)cc1OC (stereo not given),22.1,> 96.3,40.7,14.1,14.9,41.2,8.68,24.3,,3.66,1.62,4.49,> 100,9.36,3.31,3.31,10.9,3.08,3.83,
Cc1cc(NCCCCCCCCNc2cc(C)nc3cc(N(C)C)ccc23)c2ccc(N(C)C)cc2n1,15.2,49.1,5.5,,14,,17.2,72.1,28.5,,,,,,,,,,,
CCN(Cc1c(F)cccc1C(F)(F)F)c1ccc(CO)c(Cl)c1,31.7,36.1,14,0.154,11.8,33,21.9,24.2,,14.4,15.7,18.3,42.1,2.44,0.035,< 0.0371,16.7,1.47,10.2,
Nc1cc2c3ccccc3ccc2c2ccccc12,> 100,> 100,> 100,> 100,> 100,> 100,> 100,> 100,,> 100,8,> 100,> 100,> 100,> 61.4,13.4,> 100,> 45.9,> 100,
C#CCN(Cc1ccc2nc(-c3ccccc3)c(Cl)nc2c1)c1ccc(Cl)c(Cl)c1,> 100,> 100,> 100,,> 100,96.8,,> 100,> 100,,,,,,,,,,,
Oc1ccc(Cl)cc1N=Nc1c(O)ccc2ccccc12,> 100,> 100,> 100,> 100,> 100,,> 100,> 100,> 100,,,,> 100,,,,,,,
COc1ccc(NC(=O)CC2SC(=Nc3ccc(Cl)cc3C)NC2=O)c([N+](=O)[O-])c1 (stereo not given),> 100,> 100,,> 100,> 100,> 100,> 100,> 100,> 100,,,,,,,,,,,
COc1ccc(C2[C@@H](Cl)C(=O)N2c2ccc(OC)cc2)cc1 (stereo not given in full),> 100,> 100,> 100,> 100,> 100,> 100,> 100,> 100,> 100,,,,,,,,,,,
COc1cc(OC)c(OC)cc1/C=C/c1ccc2ccccc2n1,> 10,> 10,> 10,,> 10,> 10,> 10,> 10,,,,,> 10,,,,,,,
C=C1[C@H](O)C[C@@H](C(C)C(O)CC=C(C)C)[C@@H](O)[C@@H]2C(C)=CC[C@@H]12 (stereo not given in full),> 100,> 100,> 100,> 100,> 100,,> 100,> 100,> 100,> 100,55.6,> 100,> 100,> 100,> 100,> 100,,> 100,> 100,> 100
CS(=O)(=O)Nc1cc(-c2ccc3ncnc(Nc4ccc(OCc5ccccn5)c(Cl)c4)c3c2)cnc1Cl,> 100,> 100,1.85,11,> 100,3.31,1.03,3.66,3.46,0.381,0.217,,,0.316,0.549,0.648,1.13,0.286,1.09,0.313
O=C(COc1ccc(Cl)cc1Cl)NNc1ccc([N+](=O)[O-])cc1,> 100,,> 100,> 100,> 100,> 100,> 100,> 100,,41.5,,25.6,95.4,95.7,28.9,65.3,> 100,> 100,> 100,
Cc1ccc(C2=C(c3ccccc3)C(O)(c3ccccc3)C(c3ccccc3)=C2c2ccc(C)cc2)cc1,> 100,,,> 100,> 100,> 100,> 100,,> 100,,,,,,,,,,,
Nc1nc2c(nnn2C2C=C(CO)C(O)C2O)c(=O)[nH]1 (stereo not given),> 100,> 100,> 100,> 100,> 100,> 100,,> 100,> 100,,,,,,,,,,,
c1ccc(C2SCc3nc4ccccc4n32)cc1 (stereo not given),> 100,> 100,> 100,> 100,> 100,> 100,67.3,> 100,> 100,,,,,,,,,,,
CCN(CC(O)COc1ccc2c(c1)[n+]([O-])nc(N)[n+]2[O-])C(C)=O (stereo not given),> 100,> 100,> 100,> 100,> 100,,> 100,> 100,> 100,,,,> 100,,,,,,,
O=C(Nc1c(Cl)cccc1Cl)Oc1cccc2cccnc12,45.5,23.2,> 100,21.7,> 100,24.6,47.7,24.4,,4.07,2.29,10.9,66.1,35.2,4.57,3.69,5.82,3.64,3.19,
O=C1C2Cc3ccccc3CN2C(=O)N1CN1CCCCC1 (stereo not given),> 100,> 100,> 100,> 100,,> 100,> 100,> 100,,,,,,,,,,,,
S=C1NC(c2ccccc2)NC(c2ccccc2)S1 (stereo not given),> 100,8.38,> 100,> 100,> 100,,> 100,> 100,> 100,,,,> 100,,,,,,,

Compound,TGI [1] [µM],TGI [2] [µM],TGI [3] [µM],TGI [4] [µM],TGI [5] [µM],TGI [6] [µM],TGI [7] [µM],TGI [8] [µM],TGI [9] [µM],GI50 [1] [µM],GI50 [2] [µM],GI50 [10] [µM],TGI [10] [µM],GI50 [3] [µM],GI50 [4] [µM],GI50 [5] [µM],GI50 [6] [µM],GI50 [7] [µM],GI50 [8] [µM],GI50 [9] [µM]
OCC1OC(NO)C(O)C(O)C1O (stereo not given),> 100,> 100,> 100,> 100,> 100,> 100,> 100,> 100,,,,,,,,,,,,
Cc1nc2cc3[nH]c4ccccc4c(=O)c3cc2s1,> 100,> 100,> 100,> 100,> 100,> 100,> 100,> 100,> 100,,,,,,,,,,,
O=S(=O)(O)c1ccc([Se][Se]c2ccc(S(=O)(=O)O)cc2)cc1,> 100,> 100,> 100,> 100,> 100,> 100,> 100,> 100,> 100,,,,,,,,,,,
CC1=NN(c2ccccc2)C(=O)C1N=Nc1ccc(Br)cc1C (stereo not given),> 100,> 100,> 100,> 100,> 100,> 100,> 100,> 100,> 100,,,,,,,,,,,
CCCCCCCN(CCCCCCC)C(=N)c1ccc(OC)c2ccccc12,2.53,3.63,2.35,,,,,2.83,2.85,1.1,1.76,1.56,3.53,1.01,,,,,1.43,1.37
O=C1C2=C(c3ccccc31)C(c1ccc([N+](=O)[O-])cc1)NC(=S)N2 (stereo not given),> 100,> 100,> 100,> 100,> 100,,> 100,> 100,> 100,,,,,,,,,,,
Cc1c2cc[n+](C)cc2c(C)c2c1[nH]c1ccc(OC(C)(C)C)cc12,> 100,> 100,> 100,> 100,> 100,> 100,> 100,> 100,,,,,,,,,,,,
Nc1[nH]c(=S)[nH]c(=O)c1N=Nc1c(Br)cc(S(N)(=O)=O)cc1Br,> 100,> 100,> 100,> 100,> 100,,> 100,> 100,> 100,,,,> 100,,,,,,,
N#Cc1cc([N+](=O)[O-])ccc1NC(=O)C(=O)Nn1c(=S)[nH]c2ccccc2c1=O,> 100,> 100,> 100,> 100,> 100,> 100,> 100,> 100,> 100,,,,,,,,,,,
O=C(NNC(=O)/C(=C/c1cccc([N+](=O)[O-])c1)NC(=O)c1ccccc1)Nc1ccc(Cl)cc1,30.3,31.2,26.8,32.2,26.2,25.8,38.9,40.2,44,,,,,,,,,,,
O=C1/C(=C/c2ccc(C(=O)O)cc2)CNC/C1=C\c1ccc(C(=O)O)cc1,> 100,> 100,> 100,> 100,> 100,> 100,> 100,,,,,,,,,,,,,
CCCCCCCCCCCCCC(=O)OCC1OC(=O)C(O)C1O (stereo not given),> 100,> 100,> 100,> 100,> 100,> 100,> 100,> 100,> 100,,,,,,,,,,,
Clc1cc2ns[s+]c2cc1Cl,> 100,> 100,> 100,> 100,> 100,> 100,> 100,> 100,> 100,,,,,,,,,,,
CC(C)c1cccc(C(C)C)c1NC(=O)/C(Cc1nc2ccc(Cl)cc2[nH]c1=O)=N\NC(=O)C[N+](C)(C)C,> 100,> 100,> 100,,> 100,> 100,> 100,> 100,> 100,,,,,,,,,,,
O=S1c2ccccc2N=C(c2cccs2)CC1c1ccccc1O (stereo not given),> 100,> 100,> 100,> 100,,> 100,> 100,> 100,> 100,,,,,,,,,,,
CN1C(=O)CC(CC(=O)C2CCCCC2=O)CC1=O (stereo not given),> 100,> 100,> 100,> 100,> 100,> 100,> 100,> 100,> 100,,,,,,,,,,,
C/C(COc1ccccc1)=N\NC(N)=S,> 100,> 100,> 100,> 100,> 100,> 100,> 100,> 100,> 100,,,,,,,,,,,
CN(C)c1ccc(/C=C(\C#N)C(=O)c2ccccc2)cc1Br,> 100,> 100,> 100,> 100,> 100,> 100,63.4,> 100,> 100,,,,,,,,,,,
CCn1c(C)nc([N+](=O)[O-])c1Sc1ncc[nH]1,99.6,58.7,> 100,> 100,> 100,> 100,> 100,> 100,> 100,,,,,,,,,,,
O=C(Nc1cccc(Cl)c1)Nc1cc(C(F)(F)F)ccc1Cl,6.59,> 100,3.68,10.5,7.48,5.88,7.13,,,2.44,3.24,2.63,8.39,2.09,3.25,2.54,2.53,2.33,,
CCOC1=C2N=C(C(CC)c3ccc(F)cc3)N=C2C(=O)c2ccccc21 (stereo not given),70.2,> 100,47,41.6,> 61.3,> 100,> 88.5,84.7,> 79.7,,,,,,,,,,,

# — PubChem BioAssay (NCI)
